Reference: US12617773B2, “Azetidin-3-ylmethanol derivatives as CCR6 receptor modulators” (Idorsia Pharmaceuticals Ltd, priority 2020, dated 2026)
pIC50: −log10 of the molar value.

Target: T1, human CCR6 (Homo sapiens, UniProt P51684)
T1 construct: expressed in transfected cells; host or cells: HEK-293
T1 sequence (P51684 1-374): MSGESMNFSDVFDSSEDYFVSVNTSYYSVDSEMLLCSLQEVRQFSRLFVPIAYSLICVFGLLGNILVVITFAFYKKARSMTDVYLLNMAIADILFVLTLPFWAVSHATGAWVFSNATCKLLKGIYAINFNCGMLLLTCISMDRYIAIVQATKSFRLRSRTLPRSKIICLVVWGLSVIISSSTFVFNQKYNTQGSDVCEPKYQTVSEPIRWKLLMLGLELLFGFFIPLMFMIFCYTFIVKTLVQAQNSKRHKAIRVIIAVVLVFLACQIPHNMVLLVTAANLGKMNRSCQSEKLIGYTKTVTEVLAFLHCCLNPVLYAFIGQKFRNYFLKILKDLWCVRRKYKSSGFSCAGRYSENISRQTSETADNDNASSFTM
Test: FLIPR assay (inhibition of CCL20-induced calcium signal)
Assay type: cell-based
Conditions: HEK-293 cells expressing human CCR6; mean values where determined several times; read-out: FLIPR IC50
Experimental: FLIPR assay: The bioactivity of compounds is tested in a fluorometric imaging plate reader (FLIPR: Molecular Devices) using engineered HEK-293 cells expressing the human CCR6 (GenBank: AY242126). Frozen cells are plated on Poly-L-Lysine precoated 384-well plates 2 days prior to bioassay in DMEM medium supplemented with 10% FCS and 1% Penicillin-Streptomycin. […] This buffer, but lacking the dye, is also used for washing and compound dilution steps (assay buffer). Cells are washed free of excess dye with a wash-station (Biotek), leaving 40 microliter of assay buffer at the end. Cells were incubated for 15 minutes at room temperature in the dark, before adding compounds. Stock solutions of test compounds are made up at a concentration of 10 mM in DMSO, and serially diluted first in DMSO and then transferred in assay buffer to concentrations required for inhibition dose response curves. After a 45-minute incubation period in assay buffer at room temperature, 10 microliters of each compound dilution are transferred from a compound plate to the plate containing the recombinant cells in the FLIPR instrument according to the manufacturer's instructions. After cells and compounds were preincubated for 30 minutes at room temperature in the dark, 10 microliter agonist CCL20 (Peprotech) at a final concentration of 10 nM is added, again using the FLIPR instrument. Changes in fluorescence are monitored before and after addition of the test compounds and agonist. Emission peak values above base level after CCL20 addition are exported after base line subtraction.
The calculated IC50 values may fluctuate depending on the daily assay performance. Fluctuations of this kind are known to those skilled in the art.

SMILES | pIC50
CC(C)c1ccc([C@](O)(c2cncc(CCC3(O)CCOCC3)c2)C2(C)CN(C)C2)cc1 [Example 62] | 6.62
CC(C)c1ccc([C@](O)(c2cncc(CCC(O)C3CCOCC3)c2)C2(C)CN(C)C2)cc1 (stereo partly shown) [Example 63] | 6.22
Cc1nn(C)cc1C(O)CCc1cncc([C@@](O)(c2ccc(C(C)C)cc2)C2(C)CN(C)C2)c1 (stereo partly shown) [Example 64] | 6.36
Cc1nc(C(O)CCc2cncc([C@@](O)(c3ccc(C(C)C)cc3)C3(C)CN(C)C3)c2)cs1 (stereo partly shown) [Example 66] | 6.65
CC(C)c1ccc([C@](O)(c2cncc(CCC(C)(O)c3ccn(C)n3)c2)C2(C)CN(C)C2)cc1 (stereo partly shown) [Example 70] | 6.36
Cc1nc(C(C)(O)CCc2cncc([C@@](O)(c3ccc(C(C)C)cc3)C3(C)CN(C)C3)c2)cs1 (stereo partly shown) [Example 71] | 6.83
CC(C)c1ccc([C@](O)(c2cncc(CCC(C)(O)c3ncccn3)c2)C2(C)CN(C)C2)cc1 (stereo partly shown) [Example 73] | 6.95
Cc1cc(C(C)(O)CCc2cncc([C@@](O)(c3ccc(C(C)C)cc3)C3(C)CN(C)C3)c2)nn1C (stereo partly shown) [Example 74] | 6.81
Cc1cc(C(C)(O)CCc2cncc(C(O)(c3ccc(C(C)C)cc3)C3(C)CN(C)C3)c2)ncn1 (stereo not shown) [Example 75] | 6.74
Cc1cc(C(O)CCc2cncc([C@@](O)(c3ccc(C(C)C)cc3)C3(C)CN(C)C3)c2)nn1C (stereo partly shown) [Example 76] | 6.20
CC(C)c1ccc([C@](O)(c2cncc(CCC3(O)CCc4cccnc43)c2)C2(C)CN(C)C2)cc1 (stereo partly shown) [Example 78] | 7.09
CN1CC(C)([C@](O)(c2ccc(C3CC3)cc2)c2cncc(-c3nc(C4CCOCC4)no3)c2)C1 [Example 82, (R)-(4-Cyclopropyl-phenyl)-(1,3-dimethyl-azetidin-3-yl)-{5-[3-(tetrahydro-pyran-4-yl)-[1,2,4]oxadiazol-5-yl]-pyridin-3-yl}-methanol] | 6.73
COCC(C)(C)c1noc(-c2cncc([C@@](O)(c3ccc(C4CC4)cc3)C3(C)CN(C)C3)c2)n1 [Example 83] | 6.89
CCCc1ccc([C@](O)(c2cncc(-c3nc(COC4CCOCC4)no3)c2)C2(C)CN(C)C2)cc1 [Example 85] | 7.05
CCCc1ccc([C@](O)(c2cncc(-c3nc(C4CCOCC4)no3)c2)C2(C)CN(C)C2)cc1 [Example 86] | 7.12
CC(C)c1ccc([C@](O)(c2cncc(-c3nc(C4CCOCC4)no3)c2)C2(C)CN(C)C2)cc1 [Example 88] | 7.01
CC(C)c1ccc([C@](O)(c2cncc(-c3nc(CN4CCOCC4)no3)c2)C2(C)CN(C)C2)cc1 [Example 89] | 6.64
CC1CN(Cc2noc(-c3cncc([C@@](O)(c4ccc(C(C)C)cc4)C4(C)CN(C)C4)c3)n2)CC(C)O1 (stereo partly shown) [Example 90] | 6.79
CC(C)c1ccc([C@](O)(c2cncc(-c3nc([C@@H]4C[C@H]5CC[C@@H]4O5)no3)c2)C2(C)CN(C)C2)cc1 [Example 92] | 7.09
CC(C)c1ccc([C@](O)(c2cncc(-c3nc(COC4CCOCC4)no3)c2)C2(C)CN(C)C2)cc1 [Example 93] | 7.06
COC1(c2noc(-c3cncc([C@@](O)(c4ccc(C5CC5)cc4)C4(C)CN(C)C4)c3)n2)CCOCC1 [Example 95, (R)-(4-Cyclopropyl-phenyl)-(1,3-dimethyl-azetidin-3-yl)-{5-[3-(4-methoxy-tetrahydro-pyran-4-yl)-[1,2,4]oxadiazol-5-yl]-pyridin-3-yl}-methanol] | 6.71
CN1CC(C)([C@](O)(c2ccc(C3CC3)cc2)c2cncc(-c3nc(C45CC(CO)(C4)C5)no3)c2)C1 [Example 96] | 6.89
CC(C)c1ccc([C@](O)(c2cncc(-c3nc(C45CC(CO)(C4)C5)no3)c2)C2(C)CN(C)C2)cc1 [Example 97] | 7.15
CC(C)c1ccc([C@](O)(c2cncc(-c3nc(C(C)(C)O)no3)c2)C2(C)CN(C)C2)cc1 [Example 99] | 6.95
CC(C)c1ccc([C@](O)(c2cncc(-c3nc(CC(C)(C)O)no3)c2)C2(C)CN(C)C2)cc1 [Example 102] | 6.99
CC(C)c1ccc([C@](O)(c2cncc(-c3noc(CS(C)(=O)=O)n3)c2)C2(C)CN(C)C2)cc1 [Example 103, (R)-(1,3-Dimethyl-azetidin-3-yl)-(4-isopropyl-phenyl)-[5-(5-methanesulfonylmethyl-[1,2,4]oxadiazol-3-yl)-pyridin-3-yl]-methanol] | 6.96

The remaining lines, values ahead:

pIC50 | SMILES
8.15 | CC(C)c1ccc([C@](O)(c2cncc(CCC(O)c3ccccc3)c2)C2(C)CN(C)C2)cc1 (stereo partly shown) [Example 59]
8.04 | CC(C)c1ccc(C(O)(c2cncc(CCC(C)(O)c3ccccc3)c2)C2(C)CN(C)C2)cc1 (stereo not shown) [Example 60]
7.71 | CC(C)c1ccc([C@](O)(c2cncc(CCC(O)C(C)C)c2)C2(C)CN(C)C2)cc1 (stereo partly shown) [Example 61]
7.35 | CC(C)c1ccc([C@](O)(c2cncc(CCC3CCOCC3)c2)C2(C)CN(C)C2)cc1 [Example 65]
7.93 | CC(C)c1ccc([C@](O)(c2cncc(CCC(C)(O)c3cccc(F)c3)c2)C2(C)CN(C)C2)cc1 (stereo partly shown) [Example 67]
7.75 | COc1ccc(C(C)(O)CCc2cncc([C@@](O)(c3ccc(C(C)C)cc3)C3(C)CN(C)C3)c2)cc1 (stereo partly shown) [Example 68]
7.79 | COc1ccccc1C(C)(O)CCc1cncc([C@@](O)(c2ccc(C(C)C)cc2)C2(C)CN(C)C2)c1 (stereo partly shown) [Example 69]
7.82 | COc1cccc(C(C)(O)CCc2cncc([C@@](O)(c3ccc(C(C)C)cc3)C3(C)CN(C)C3)c2)n1 (stereo partly shown) [Example 72]
7.28 | CC(C)c1ccc([C@](O)(c2cncc(CCC3(O)CCCc4cccnc43)c2)C2(C)CN(C)C2)cc1 (stereo partly shown) [Example 77]
7.52 | CCC(O)(CCc1cncc([C@@](O)(c2ccc(C(C)C)cc2)C2(C)CN(C)C2)c1)c1ccccn1 (stereo partly shown) [Example 79]
7.98 | CCC(O)(CCc1cncc(C(O)(c2ccc(C(C)C)cc2)C2(C)CN(C)C2)c1)c1cccc(OC)n1 (stereo not shown) [Example 80]
7.72 | CC(C)c1ccc([C@](O)(c2cncc(CCc3cc4ccccc4[nH]3)c2)C2(C)CN(C)C2)cc1 [Example 81]
7.28 | CN1CC(C)([C@](O)(c2ccc(C3CC3)cc2)c2cncc(-c3nc(COC4CCC4)no3)c2)C1 [Example 84]
7.21 | CCCc1ccc([C@](O)(c2cncc(-c3nc(COC4CCC4)no3)c2)C2(C)CN(C)C2)cc1 [Example 87]
7.34 | CC(C)c1ccc([C@](O)(c2cncc(-c3nc(C4(C)CCOCC4)no3)c2)C2(C)CN(C)C2)cc1 [Example 91]
7.15 | CC(C)c1ccc([C@](O)(c2cncc(-c3nc(N4CCOCC4)no3)c2)C2(C)CN(C)C2)cc1 [Example 94, (R)-(1,3-Dimethyl-azetidin-3-yl)-(4-isopropyl-phenyl)-[5-(3-morpholin-4-yl-[1,2,4]oxadiazol-5-yl)-pyridin-3-yl]-methanol]
7.22 | CC(C)c1ccc([C@](O)(c2cncc(-c3nc(C(C)(C)CO)no3)c2)C2(C)CN(C)C2)cc1 [Example 98]
7.16 | COC(C)(C)c1noc(-c2cncc([C@@](O)(c3ccc(C(C)C)cc3)C3(C)CN(C)C3)c2)n1 [Example 100]
7.38 | COC1(c2noc(-c3cncc([C@@](O)(c4ccc(C(C)C)cc4)C4(C)CN(C)C4)c3)n2)CCC1 [Example 101]
7.37 | COCCc1nc(-c2cncc([C@@](O)(c3ccc(C(C)C)cc3)C3(C)CN(C)C3)c2)no1 [Example 104]
7.36 | COCc1nc(-c2cncc([C@@](O)(c3ccc(C(C)C)cc3)C3(C)CN(C)C3)c2)no1 [Example 105]
7.33 | CC(C)c1ccc([C@](O)(c2cncc(-c3noc(C4CCOC4)n3)c2)C2(C)CN(C)C2)cc1 (stereo partly shown) [Example 106]
7.27 | CC(C)c1ccc([C@](O)(c2cncc(-c3noc(C4CCOCC4)n3)c2)C2(C)CN(C)C2)cc1 [Example 107]
7.68 | CC(C)c1ccc([C@](O)(c2cncc(-c3noc(C4(O)CCCCC4)n3)c2)C2(C)CN(C)C2)cc1 [Example 108]
7.67 | CC(C)c1ccc([C@](O)(c2cncc(-c3noc(COC(C)(C)C)n3)c2)C2(C)CN(C)C2)cc1 [Example 109]
7.41 | CC(C)c1ccc([C@](O)(c2cncc(-c3noc(CC4CCOCC4)n3)c2)C2(C)CN(C)C2)cc1 [Example 110]
7.37 | CC(C)c1ccc([C@](O)(c2cncc(-c3noc(C4CCC(O)CC4)n3)c2)C2(C)CN(C)C2)cc1 (stereo partly shown) [Example 111]
7.41 | CC(C)c1ccc([C@](O)(c2cncc(-c3noc(CC4(O)CCCCC4)n3)c2)C2(C)CN(C)C2)cc1 [Example 112]
7.53 | COC1(c2nc(-c3cncc([C@@](O)(c4ccc(C(C)C)cc4)C4(C)CN(C)C4)c3)no2)CCC1 [Example 113]
